In patent publication US10722563B2, “Prostate-specific tumor antigens and uses thereof” (SHENZHEN INNOVATION IMMUNOTECHNOLOGY CO., LTD., priority 2012, dated 2020):

How the values were obtained:
Format in all cases: cell-based, human
[1] = tested on: PBMCs of ten HLA-A2+ healthy subjects; assay: In vitro stimulation of peptide-specific T cells in PBMCs of healthy subjects, IFN-γ release by ELISA; details: for concentrations of IFN-γ in the supernatants: PBMCs stimulated 14 days with peptide 20 μg/mL, response to T2 cells pre-loaded with peptide 5 μg/mL
Procedure: (§1) Ten HLA-A2+ prostate cancer patients and ten HLA-A2+ healthy subjects were enrolled in this study after written informed consent was obtained. All protocols were approved by the Institutional Review Board (IRB) of Baylor College of Medicine before commencing studies. 20 mL of peripheral blood was obtained from each person, and peripheral blood mononuclear cells (PBMCs) were isolated by density gradient centrifugation using Lymphoprep (Nycomed Pharma AS; Oslo, Norway). The freshly isolated PBMCs were cryopreserved for later use in 1 mL freezing medium containing 90% FCS and 10% dimethyl sulfoxide (DMSO) at −140° C. The expression of HLA-A2 molecules on PBMCs obtained from cancer patients and healthy subjects was verified by flow cytometry with FITC-labeled HLA-A2 mAb BB7.2 (BD Pharmingen, San Diego, Calif., USA).
(§2) PBMCs (1×10^5 cells/well) from either healthy subjects or prostate cancer patients were incubated with standard peptide concentrations of 20 μg/mL per peptide in 96-well U-bottom microplates (BD, Franklin Lakes, N.J., USA) in 200 μL of T-cell medium (TCM), consisting of RPMI 1640 (Mediatech, Manassas, Va., USA), 10% human AB serum (Valley Biomedical, Winchester, USA), 50 μM of 2-mercaptoethanol, 100 U/mL of interleukin-2 (IL-2), and 0.1 mM MEM nonessential amino acid solution (Invitrogen, Grand Island, N.Y., USA). Half of the TCM was removed and replaced with fresh TCM containing peptides (20 μg/mL) every 5 days. After 14 days of culture, the cells were harvested and tested for their ability to produce IFN-γ in response to T2 cells (1×10^4 cells/well), which were pre-loaded with either PSGR peptide (5 μg/mL) or a control peptide (an irrelevant HL-A2 binding peptide: NLLTHVESL) as a negative control. After 18 hours of incubation, supernatants were collected, and IFN-γ release was determined by ELISA assay.
(§3) Cytokine release was measured by coating 96-well ELISA plates (Thermo Fisher Scientific; Rochester, N.Y., USA) with 1 μg/mL anti-human IFN-γ (Pierce Biotechnology; Rockford, Ill., USA) overnight at 4° C. The plate was washed six times with PBS containing 0.05% Tween-20 (wash solution) to remove unbound coating antibody, and blocked with 1% BSA/PBS at room temperature for 2 hrs. Afterwards, 50 μL supernatant was added to each well and incubated at room temperature for 1 hr, then 50 μL of 0.5 μg/mL biotinylated anti-human IFN-γ (Pierce Biotechnology; Rockford, Ill., USA) was added and plates were incubated for an additional 1 hr at room temperature. After incubation, plates were washed and incubated for 30 min with Poly-HRP-Streptavidin (Thermo Fisher Scientific; Rochester, N.Y., USA) diluted 1:5000 in PBS/1% BSA. Plates were washed and 100 μL of TMB substrate solution (Sigma-Aldrich Co.; St. Louis, Mo., USA) was added per well. The colorimetric reaction was stopped using 2N H2SO4 and plates were read at 450 nm using an ELISA plate reader.
To determine whether PSGR-reactive T cell precursors are present in healthy subjects, we obtained PBMCs from 10 HLA-A2+ healthy donors and stimulated them in vitro with each of the 21 PSGR-derived peptides containing HLA-A2-binding motif (Table 1). After 2 weeks of peptide stimulation, supernatants from peptide-stimulated T cells were analyzed by ELISA assay to detect IFN-γ release in response to T2 cells pulsed with or without corresponding peptides.

[2] = tested on: PBMCs of HLA-A2+ prostate cancer patients; assay: In vitro stimulation of peptide-specific T cells in PBMCs of prostate cancer patients, IFN-γ release by ELISA; details: PBMCs stimulated in vitro with peptide
Procedure: as §1, §2, §3
Since peptide-specific T cells against PSGR3, PSGR4 and PSGR14 were found in more than 70% of healthy subjects, we reasoned that CTL precursors that recognize these 3 peptides may also be high in PBMCs of prostate cancer patients. To test our hypothesis, we examined whether these three peptide candidates can induce peptide-specific CTLs from the PBMCs of HLA-A2+ prostate cancer patients. PBMCs from prostate cancer patients were collected and stimulated in vitro with PSGR3, PSGR4 or PSGR14 peptides.

LNCaP cells = assay: Cytotoxicity of PSGR peptide-specific T cells by LDH assay against LNCaP; details: HLA-A2 positive, PSGR expressing LNCaP; T cells from healthy donors and patients; FIG. 2B
Procedure: The expression of PSGR mRNA in different cell lines was determined by RT-PCR (A). PSGR derived peptide-specific T cells were tested for cytotoxicity against both PC3 and LNCaP by the LDH assay (B). Data from B are plotted as means±SD. Results are representative of three independent experiments. *P<0.05, versus control.
Cells were stained with anti-CD8 and anti-IFN-γ, then analyzed on a FACScalibur machine (A). PSGR-derived peptide-specific T cells were co-incubated with LNCaP cells alone in medium, or with LNCaP cells in the presence of either anti-HLA-I mAb (W6/32), HLA-II mAb or a control mAb (anti-CD19 mAb). After 4 hours of incubation, the cytotoxicity against LNCaP was determined by the LDH assay (B). Data from B are plotted as means±SD. Results are representative of three independent experiments. *P<0.05, versus controls.
PSGR derived peptide-specific T cells were tested for cytotoxicity against both PC3 and LNCaP by a lactate dehydrogenase (LDH) assay (Promega; Madison, Wis., USA). The assay was performed in accordance with the manufacturer's instructions. LDH release was calculated based on the following formula: Cytotoxicity (%)=(Experimental−Effector Spontaneous−Target Spontaneous LDH release)/(Target Maximum−Target Spontaneous LDH release)×100.
Spontaneous release was determined by using the supernatant of the target cells alone or effector cells alone, and the maximum release was determined by using the supernatant of target cells incubated with a lysis solution included in LDH kit. To determine if T cell recognition is HLA-I restricted, anti-HLA-I, anti-HLA-II, or anti-CD19 mAb (all from ATCC, Manassas, Va., USA) were added into wells at the initiation of the culture.

ILANIYLLV (PSGR3)
healthy subjects in which the peptide induced T cell responses ([1]; 10 HLA-A2+ healthy donors, IFN-γ ELISA after 2 weeks of peptide stimulation): 7 out of 10
concentrations of IFN-γ in the supernatants ([1]; healthy subject #1): 127 pg/mL
concentrations of IFN-γ in the supernatants ([1]; healthy subject #2): 398 pg/mL
concentrations of IFN-γ in the supernatants ([1]; healthy subject #3): 393 pg/mL
concentrations of IFN-γ in the supernatants ([1]; healthy subject #4): 768 pg/mL
concentrations of IFN-γ in the supernatants ([1]; healthy subject #5): 227 pg/mL
concentrations of IFN-γ in the supernatants ([1]; healthy subject #6): 183 pg/mL
concentrations of IFN-γ in the supernatants ([1]; healthy subject #7): 645 pg/mL
concentrations of IFN-γ in the supernatants ([1]; healthy subject #8): 0 pg/mL
concentrations of IFN-γ in the supernatants ([1]; healthy subject #9): 394 pg/mL
concentrations of IFN-γ in the supernatants ([1]; healthy subject #10): 0 pg/mL
induction of peptide-specific CTLs from PBMCs of prostate cancer patients ([2]; Table 3): indeed induced peptide-specific CTLs
concentrations of IFN-γ in the supernatants ([2]; prostate cancer patient #2): 525 pg/mL
concentrations of IFN-γ in the supernatants ([2]; prostate cancer patient #3): 503 pg/mL
concentrations of IFN-γ in the supernatants ([2]; prostate cancer patient #12): 326 pg/mL
concentrations of IFN-γ in the supernatants ([2]; prostate cancer patient #13): 217 pg/mL
concentrations of IFN-γ in the supernatants ([2]; prostate cancer patient #14): 0 pg/mL
concentrations of IFN-γ in the supernatants ([2]; prostate cancer patient #15): 282 pg/mL
concentrations of IFN-γ in the supernatants ([2]; prostate cancer patient #16): 35 pg/mL
concentrations of IFN-γ in the supernatants ([2]; prostate cancer patient #17): 156 pg/mL
concentrations of IFN-γ in the supernatants ([2]; prostate cancer patient #22): 103 pg/mL
concentrations of IFN-γ in the supernatants ([2]; prostate cancer patient #25): 22 pg/mL
recognition and killing of LNCaP by peptide-specific T cells (LNCaP cells): could recognize and kill
